Assay: HORAC Hydroxyl radical antioxidant capacity assay
From the text: HORAC Assay: Hydroxyl Antioxidant Capacity In Vitro
The commercial kit “Oxiselect Hydroxyl Radical Antioxidant Capacity (HORAC) activity assay” (Cell Biolabs).
The HORAC assay esxpresses the compound antiradical capacity towards the hydroxyl radical OH′ and is based on the oxidation of a fluorescent probe by hydroxyl radicals through a hydrogen transfer process (HAT). Hydroxyl radicals are produced by a radical initiator hydroxyl and by Fenton's reagent, which quenches the fluorescent probe over time. The antioxidants present in the sample block the oxidation by the hydroxyl radical of the fluorescent probe until the antioxidant activity in the sample runs out. The remaining hydroxyl radicals destroy the fluorescence of the fluorescent probe. The antioxidant capacity of the sample is related to the fluorescence decay curve, which usually is represented as the area under the curve (AUC). The AUC is used to quantify the total antioxidant activity of the hydroxyl radical in a sample and is compared to the curve of an antioxidant standard.
The compounds of the invention were tested at the following concentrations: 13.5 μM; 27 μM, 13.5 mM; 27 mM.
For comparison purposes, also samples of the compound monofurfurylidene-2.4-sorbitol defined below by the acronym ARGB11, were in this case tested under the same two concentrations, as a reference compound according to EP0345362 mentioned above as the background art of substances with free radical inhibition activity.

## OC[C@@H](O)[C@H]1OC(c2ccco2)O[C@@H](CO)[C@H]1O (stereo partly shown) [ARGB11, monofurfurylidene-2.4-sorbitol, reference compound]
13.5 μM
  HORAC (Hydroxyl Radical Antioxidant Capacity): 31.04 μMole GAE/L
27 μM
  HORAC (Hydroxyl Radical Antioxidant Capacity): 40.110 μMole GAE/L
13.5 mM
  HORAC (Hydroxyl Radical Antioxidant Capacity): 308.497 μMole GAE/L
27 mM
  HORAC (Hydroxyl Radical Antioxidant Capacity): 408.795 μMole GAE/L

From US10550094B2, “Compounds having antioxidant activity against free radicals and anti-inflammatory activity, and corresponding pharmaceutical or cosmetic compositions for skin care” (GIULIANI S.P.A., priority 2015, dated 2020)
